Values of other authors, collected in US20200352905A1, “6-(2,4-DICHLOROPHENYL)-5-[4-[(3S)-1-(3-FLUOROPROPYL)PYRROLIDIN-3-YL]OXYPHENYL]-8,9-DIHYDRO-7H-BENZO[7]ANNULENE-2-CARBOXYLIC ACID FOR USE IN METASTATIC OR ADVANCED BREAST CANCER PATIENTS” (SANOFI, priority 2019, published 2020).
Read-outs that look alike come from different tables or passages of the source.

What was measured:
CYP3A [1] = settings: cited from earlier work
CYP3A [2] = settings: cited from earlier work; remark: listed apart in the source
CYP2C8 = settings: cited from earlier work
advanced breast cancer = settings: prior CDK4/6, mTOR, fulvestrant not allowed, cited from earlier work
[3] = moderate CYP3A inhibitors, victim midazolam (oral)
[4] = strong CYP3A inhibitors, victim midazolam (oral)
[5] = victim Sildenafil, 62.5-125 mg BID 8 weeks
[6] = victim Quetiapine, 200 mg TID (26 days)
[7] = victim Midazolam, 1000 mg QD (14 days)
[8] = victim Midazolam, 1000 mg BID (14 days)
[9] = victim Triazolam, 200-400 mg QD 28 days
[10] = victim Nifedipine, 500 mg 4 times daily 5 days
[11] = victim Verapamil, 100 mg QD 21 days
[12] = victim Midazolam, 140 mg QD (10 days)
[13] = victim Indinavir, 500 mg TID 14 days
[14] = EFECT trial 2003-2005, fulvestrant single agent arm, n=270, setting 2L+
[15] = PALOMA-3 trial 2013-2014, fulvestrant single agent arm, n=138, setting 2L+
[16] = SANDPIPER trial 2015-2017, fulvestrant single agent arm, n=134, setting 2L+
[17] = SoFEA trial 2004-2010, fulvestrant single agent arm, n=178, setting 2L+

SMILES: COCCc1ccc(Cl)c(CN(C(=O)[C@H]2CNCC[C@@H]2c2ccc(OCCOc3c(Cl)cc(C)cc3Cl)nc2)C2CC2)c1 [ACT-178882]
- AUC Ratio (CYP3A [1]; [3]): 2.19

SMILES: CC(C)c1cc(C(C)C)c(CC(=O)NS(=O)(=O)Oc2c(C(C)C)cccc2C(C)C)c(C(C)C)c1 [Avasimibe]
- % of AUC decrease (CYP3A [2]; victim Midazolam, 750 mg/day (7 days)): 93.5%

SMILES: CC(C)(C)NC(=O)N[C@H](C(=O)N1C[C@H]2[C@@H]([C@H]1C(=O)NC(CC1CCC1)C(=O)C(N)=O)C2(C)C)C(C)(C)C (stereo partly drawn) [Boceprevir]
- AUC Ratio (CYP3A [1]; [4]): 5.05

SMILES: COc1ccccc1Oc1c(NS(=O)(=O)c2ccc(C(C)(C)C)cc2)nc(-c2ncccn2)nc1OCCO [Bosentan]
- % of AUC decrease (CYP3A [2]; [5]): 69%
- % oral CL increase (CYP3A [2]; [5]): 239.8%

SMILES: NC(=O)N1c2ccccc2C=Cc2ccccc21 [Carbamazepine]
- Max % of AUC decrease or CL increase (CYP2C8; substrate dasabuvir, 200 mg QD (3 days) then BID (21 days)): 70.3%
- % of AUC decrease (CYP3A [2]; [6]): 86.6%
- % oral CL increase (CYP3A [2]; [6]): 643.1%

SMILES: CC[C@H]1OC(=O)[C@H](C)[C@@H](O[C@H]2C[C@@](C)(OC)[C@@H](O)[C@H](C)O2)[C@H](C)[C@@H](O[C@@H]2O[C@H](C)C[C@H](N(C)C)[C@H]2O)[C@](C)(OC)C[C@@H](C)C(=O)[C@H](C)[C@@H](O)[C@]1(C)O [Clarithromycin]
- AUC Ratio (CYP3A [1]; [4]): 8.39

SMILES: Cc1nc2c([nH]1)-c1ccccc1N(C(=O)c1ccc(NC(=O)c3ccccc3-c3ccccc3)cc1)CC2 [Conivaptan]
- AUC Ratio (CYP3A [1]; [4]): 5.76

SMILES: CCCCc1oc2ccc(NS(C)(=O)=O)cc2c1C(=O)c1ccc(OCCCN(CCCC)CCCC)cc1 [Dronedarone]
- AUC Ratio (CYP3A [1]; moderate CYP3A inhibitors, victim simvastatin): 3.66

SMILES: O=C1Nc2ccc(Cl)cc2[C@@](C#CC2CC2)(C(F)(F)F)O1 [Efavirenz]
- % of AUC decrease (CYP3A [2]; victim Simvastatin acid, 600 mg QD 28 days): 60.4%

SMILES: CNC(=O)c1ccc(N2C(=S)N(c3ccc(C#N)c(C(F)(F)F)c3)C(=O)C2(C)C)cc1F [Enzalutamide]
- % of AUC decrease (CYP3A [2]; victim Midazolam, 160 mg QD (85 ± 3 days)): 85.9%

SMILES: Cc1cc(C#N)cc(C)c1Oc1nc(Nc2ccc(C#N)cc2)nc(N)c1Br [Etravirine]
- % of AUC decrease (CYP3A [2]; victim Sildenafil, 800 mg BID 13.5 days): 56.7%

SMILES: OC(Cn1cncn1)(Cn1cncn1)c1ccc(F)cc1F [Fluconazole]
- AUC Ratio (CYP3A [1]; [3]): 4.93

SMILES: O=c1c(-c2ccc(O)cc2)coc2cc(O)cc(O)c12 [Genistein]
- % of AUC decrease (CYP3A [2]; [7]): 13.7%
- % oral CL increase (CYP3A [2]; [7]): 136.9%

SMILES: CC[C@H](Nc1ncnc2[nH]cnc12)c1nc2cccc(F)c2c(=O)n1-c1ccccc1 [Idelalisib]
- AUC Ratio (CYP3A [1]; [4]): 5.15

SMILES: CCC(C)n1ncn(-c2ccc(N3CCN(c4ccc(OCC5COC(Cn6cncn6)(c6ccc(Cl)cc6Cl)O5)cc4)CC3)cc2)c1=O (stereo not drawn) [Itraconazole]
- AUC Ratio (CYP3A [1]; [4]): 10.80

SMILES: CC(=O)N1CCN(c2ccc(OCC3COC(Cn4ccnc4)(c4ccc(Cl)cc4Cl)O3)cc2)CC1 (stereo not drawn) [Ketoconazole]
- AUC Ratio (CYP3A [1]; in vivo, po): 15.90

SMILES: CN[C@@H](C)C(=O)N[C@H](C(=O)N1CCC[C@H]1c1nc(C(=O)c2ccc(F)cc2)cs1)C1CCCCC1 [LCL 161]
- AUC Ratio (CYP3A [1]; [4]): 8.80

SMILES: CCc1nn(CCO)c(CC)c1Oc1cc(C#N)cc(C#N)c1 [Lersivirine]
- % of AUC decrease (CYP3A [2]; [8]): 51.4%
- % oral CL increase (CYP3A [2]; [8]): 105.5%

SMILES: COCC(=O)O[C@]1(CCN(C)CCCc2nc3ccccc3[nH]2)CCc2cc(F)ccc2[C@@H]1C(C)C [Mibefradil]
- AUC Ratio (CYP3A [1]; [4]): 8.86

SMILES: Clc1ccc(C(c2ccccc2Cl)C(Cl)Cl)cc1 (stereo not drawn) [Mitotane]
- % of AUC decrease (CYP3A [2]; victim Midazolam, Maximum of 3.5 g TID (chronic therapy)): 94.5%

SMILES: NC(=O)C[S+]([O-])C(c1ccccc1)c1ccccc1 (stereo not drawn) [Modafinil]
- % of AUC decrease (CYP3A [2]; [9]): 57.6%
- % oral CL increase (CYP3A [2]; [9]): 35.7%

SMILES: CCOc1ccc2ccccc2c1C(=O)N[C@@H]1C(=O)N2[C@@H]1SC(C)(C)[C@@H]2C(=O)O [Naficillin]
- % of AUC decrease (CYP3A [2]; [10]): 62.6%
- % oral CL increase (CYP3A [2]; [10]): 145.1%

SMILES: CCc1nn(CCCN2CCN(c3cccc(Cl)c3)CC2)c(=O)n1CCOc1ccccc1 [Nefazodone]
- AUC Ratio (CYP3A [1]; [4]): 5.44

SMILES: Cc1c(O)cccc1C(=O)N[C@@H](CSc1ccccc1)[C@H](O)CN1C[C@H]2CCCC[C@H]2C[C@H]1C(=O)NC(C)(C)C [Nelfinavir]
- AUC Ratio (CYP3A [1]; [4]): 5.29

SMILES: CCC1(c2ccccc2)C(=O)NC(=O)NC1=O [Phenobarbital]
- % of AUC decrease (CYP3A [2]; [11]): 76.6%
- % oral CL increase (CYP3A [2]; [11]): 400.9%

SMILES: O=C1NC(=O)C(c2ccccc2)(c2ccccc2)N1 [Phenytoin]
- % of AUC decrease (CYP3A [2]; victim Nisoldipine, 200-450 mg/day (chronic treatment)): 89.5%

SMILES: CC[C@@H]([C@H](C)O)n1ncn(-c2ccc(N3CCN(c4ccc(OC[C@@H]5CO[C@@](Cn6cncn6)(c6ccc(F)cc6F)C5)cc4)CC3)cc2)c1=O [Posaconazole]
- AUC Ratio (CYP3A [1]; [4]): 6.23

SMILES: CO[C@H]1/C=C/O[C@@]2(C)Oc3c(C)c(O)c4c(c3C2=O)C2=NC3(CCN(CC(C)C)CC3)NC2=C(NC(=O)/C(C)=C\C=C\[C@H](C)[C@H](O)[C@@H](C)[C@@H](O)[C@@H](C)[C@H](OC(C)=O)[C@@H]1C)C4=O [Rifabutin]
- % oral CL increase (CYP3A [2]; victim Delavirdine, 300 mg QD 14 days): 458.0%

SMILES: CO[C@H]1/C=C/O[C@@]2(C)Oc3c(C)c(O)c4c(O)c(c(/C=N/N5CCN(C)CC5)c(O)c4c3C2=O)NC(=O)/C(C)=C\C=C\[C@H](C)[C@H](O)[C@@H](C)[C@@H](O)[C@@H](C)[C@H](OC(C)=O)[C@@H]1C [Rifampin]
- Max % of AUC decrease or CL increase (CYP2C8; substrate pioglitazone, 600 mg QD (6 days)): 53.8%
- Max % of AUC decrease or CL increase (CYP2C8; substrate repaglinide, 600 mg QD (7 days)): 79.6%
- Max % of AUC decrease or CL increase (CYP2C8; substrate rosiglitazone, 600 mg QD (6 days)): 66.4%

SMILES: CC(C)(C)NC(=O)[C@@H]1C[C@@H]2CCCC[C@@H]2CN1C[C@@H](O)[C@H](Cc1ccccc1)NC(=O)[C@H](CC(N)=O)NC(=O)c1ccc2ccccc2n1 [Saquinavir]
- AUC Ratio (CYP3A [1]; [4]): 5.18

SMILES: CC(C)[C@H](O)C(=O)N[C@@H](C)C(=O)N[C@@H]1C(=O)N(C)CCc2ccccc21 [Semagacestat]
- % of AUC decrease (CYP3A [2]; [12]): 76.4%
- % oral CL increase (CYP3A [2]; [12]): 324.6%

SMILES: COc1ccc2c(c1)N(C(=O)OC(C)C)[C@@H](CSC)C(=S)N2 [Talviraline]
- % of AUC decrease (CYP3A [2]; [13]): 61.7%
- % oral CL increase (CYP3A [2]; [13]): 181.2%

SMILES: CCC[C@H](NC(=O)[C@@H]1[C@H]2CCC[C@H]2CN1C(=O)[C@@H](NC(=O)[C@@H](NC(=O)c1cnccn1)C1CCCCC1)C(C)(C)C)C(=O)C(=O)NC1CC1 [Telaprevir]
- AUC Ratio (CYP3A [1]; [4]): 13.5

SMILES: CC[C@H]1OC(=O)[C@H](C)C(=O)[C@H](C)[C@@H](O[C@@H]2O[C@H](C)C[C@H](N(C)C)[C@H]2O)[C@](C)(OC)C[C@@H](C)C(=O)[C@H](C)[C@H]2N(CCCCn3cnc(-c4cccnc4)c3)C(=O)O[C@]12C [Telithromycin]
- AUC Ratio (CYP3A [1]; [4]): 6.2

SMILES: CC(C)CN(C[C@@H](O)[C@H](Cc1ccccc1)NC(=O)O[C@H]1CCOC1)S(=O)(=O)c1ccc(N)cc1 [amprenavir]
- AUC Ratio (CYP3A [1]; in vivo): 2.93

SMILES: C[C@@H](O[C@H]1OCCN(Cc2n[nH]c(=O)[nH]2)[C@H]1c1ccc(F)cc1)c1cc(C(F)(F)F)cc(C(F)(F)F)c1 [aprepitant]
- AUC Ratio (CYP3A [1]; [3]): 3.29

SMILES: COC(=O)N[C@H](C(=O)N[C@@H](Cc1ccccc1)[C@@H](O)CN(Cc1ccc(-c2ccccn2)cc1)NC(=O)[C@@H](NC(=O)OC)C(C)(C)C)C(C)(C)C [atazanavir]
- AUC Ratio (CYP3A [1]; moderate CYP3A inhibitors, victim maraviroc): 3.57

SMILES: CC(=O)N1CCN([C@H]2CCN(C(=O)N(C)[C@H](C)c3cc(C(F)(F)F)cc(C(F)(F)F)c3)[C@@H](c3ccc(F)cc3C)C2)CC1 [casopitant]
- AUC Ratio (CYP3A [1]; [3]): 3.13

SMILES: C[C@]12CC[C@@H]3c4ccc(O)cc4C[C@@H](CCCCCCCCC[S+]([O-])CCCC(F)(F)C(F)(F)F)[C@H]3[C@@H]1CC[C@@H]2O (stereo partly drawn) [fulvestrant]
- CBR (advanced breast cancer; [14]): 32.2%
- ORR (advanced breast cancer; [14]): 7.4%
- CBR (advanced breast cancer; [15]): 36%
- ORR (advanced breast cancer; [15]): 11%
- CBR (advanced breast cancer; [16]): 37.3%
- ORR (advanced breast cancer; [16]): 11.9%
- CBR (advanced breast cancer; [17]): 31%
- ORR (advanced breast cancer; [17]): 8%

SMILES: C[C@@H](c1nc(-c2ccc(C#N)cc2)cs1)[C@](O)(Cn1cncn1)c1cc(F)ccc1F [isavuconazole]
- AUC Ratio (CYP3A [1]; [3]): 2.03

SMILES: N#Cc1ccnc(N2C(=O)CC[C@H]2C(=O)N(c2cncc(F)c2)[C@H](C(=O)NC2CC(F)(F)C2)c2ccccc2Cl)c1 [ivosidenib]
- Max % of AUC decrease or CL increase (CYP2C8; substrate repaglinide, 1200 mg QD (19 days), PBPK): 59.0 (PBPK) %

SMILES: Cc1ccccc1-c1cc(N2CCN(C)CC2)ncc1N(C)C(=O)C(C)(C)c1cc(C(F)(F)F)cc(C(F)(F)F)c1 [netupitant]
- AUC Ratio (CYP3A [1]; [3]): 2.44

SMILES: Cc1cn(-c2cc(NC(=O)c3ccc(C)c(Nc4nccc(-c5cccnc5)n4)c3)cc(C(F)(F)F)c2)cn1 [nilotinib]
- AUC Ratio (CYP3A [1]; [3]): 2.40

SMILES: CCC1C(C)=NN=C(c2ccc(OC)c(OC)c2)c2cc(OC)c(OC)cc21 (stereo not drawn) [tofisopam]
- AUC Ratio (CYP3A [1]; [3]): 2.36
